From article PMC9718554, “Discovery of a fragment hit compound targeting D-Ala:D-Ala ligase of bacterial peptidoglycan biosynthesis” (Journal of Enzyme Inhibition and Medicinal Chemistry, 2022)
Like-named read-outs stand apart in the source and are kept apart here.

Target: T1, E. coli DdlB enzyme (D-alanine:D-alanine ligase) (Escherichia coli, UniProt P07862)
T1 construct: made in house; host or cells: E. coli
Experiment: biochemical
Settings: for remaining activity at 1900 µM: tested concentration 1.9 mM; for remaining activity at 2300 µM: tested concentration 2.3 mM; for remaining activity at 2100 µM: tested concentration 2.1 mM; for remaining activity at 2200 µM: tested concentration 2.2 mM; for remaining activity at 2400 µM: tested concentration 2.4 mM; for remaining activity at 3200 µM: tested concentration 3.2 mM; for remaining activity at 500 µM: at 0.5 mM, read-out: DdlB inhibition, RA (Residual Activity); for remaining activity at 1700 µM: tested concentration 1.7 mM; for remaining activity at 1800 µM: tested concentration 1.8 mM; for remaining activity at 2000 µM: tested concentration 2.0 mM; for remaining activity at 3500 µM: tested concentration 3.5 mM
Description: The fragment library was assayed in a DdlB inhibition assay, where fragments were tested for their ability to inhibit the D-Ala-adding activity of DdlB ligase. The orthophosphate formed during the enzymatic reaction was measured spectrophotometrically using malachite green reagent.
A recombinant E. coli DdlB enzyme (D-alanine:D-alanine ligase) was expressed in E. coli[11]. […] The final DMSO concentration was 5%. […] All experiments were performed in duplicates. […] IC50 values were determined by measuring the residual activities in quadruplicate at seven different compound concentrations and calculated using in GraphPad Prism (GraphPad Software, San Diego, CA, USA).

[1] = residual activity, read-out: DdlB RA
[2] = residual activity of DdlB, fragment library screening, tested concentration 2.5 mM, read-out: DdlB RA

COCC1CN(C(C)=O)CC12CCNCC2 (centres unmarked) [Compound S635-3083]
remaining activity at 1900 µM (read-out: DdlB RA): 93%

Cc1cc(C)c(S(N)(=O)=O)c(Cl)n1 [Compound 8008-1931]
remaining activity at 2300 µM (read-out: DdlB RA): 78%

N#Cc1cccc2[nH]ccc12 [Compound 8019-9980]
remaining activity at 4200 µM (read-out: DdlB RA): 101%

CCC(=O)N1CCC(c2nc(C3CCOCC3)no2)C1 (centres unmarked) [Compound S428-0464]
remaining activity at 2100 µM [1]: 95%

COc1ccncc1 [FLD185]
remaining activity at 2500 µM [2]: 99%

CCOc1c(N2CCC(C)CC2)c(=O)c1=O [Compound K906-2369]
remaining activity at 2200 µM (read-out: DdlB RA): 71%

CCN(Cc1ccccc1)S(=O)(=O)c1ncn[nH]1 [Compound 8013-0404]
remaining activity at 1900 µM [1]: 89%

COC(=O)c1ccc(S(=O)(=O)O)o1 [Compound 4055-0046]
remaining activity at 2400 µM (read-out: DdlB RA): 102%

Oc1ccc(OCc2ccccc2)cc1 [FLD045]
remaining activity at 2500 µM [2]: 100%

O=C(O)C1CSC(c2c(F)cc(F)cc2F)N1 (centres unmarked) [Compound 8011-4426]
remaining activity at 1900 µM (read-out: DdlB RA): 90%

O=C(O)C1Cc2ccccc2N1 (centres unmarked) [FLD038]
remaining activity at 2500 µM [2]: 81%

COc1ccc2ncc(C(=O)O)c(O)c2c1 [Compound D284-0199]
remaining activity at 2300 µM (read-out: DdlB RA): 66%

CCCOc1ccc(C(=O)NCC(=O)O)cc1 [Compound 8007-0359]
remaining activity at 2100 µM (read-out: DdlB RA): 86%

COc1nonc1O [Compound 8019-4549]
remaining activity at 4300 µM (tested concentration 4.3 mM, read-out: DdlB RA): 93%

CC(=O)N1CC(=O)N(CCc2ccccc2)CC(O)C1 (centres unmarked) [SA85-1024]
remaining activity at 2200 µM [1]: 95%

Nc1cccc2ncccc12 [FLD054]
remaining activity at 2500 µM [2]: 94%

Cn1cnc(S(=O)(=O)NC2CCCCCCC2)c1 [Compound G404-0427]
remaining activity at 2200 µM [1]: 91%

Cc1ccn(C(C)C(=O)O)n1 (centres unmarked) [Compound Y503-2318]
remaining activity at 3200 µM (read-out: DdlB RA): 95%

CC1(CNC(=O)c2ccccc2Cl)CCOCC1 [Compound P970-0504]
remaining activity at 2200 µM [1]: 94%

O=C(O)[C@H](O)Cc1ccccc1 [FLD039]
remaining activity at 2500 µM [2]: 93%

CC(=O)N1CCCC(c2nn(C)c(=O)n2C2CCCC2)C1 (centres unmarked) [Compound P940-4223]
remaining activity at 2100 µM [1]: 96%

CC(=O)c1ccc[nH]1 [FLD139]
remaining activity at 2500 µM [2]: 95%

Cc1ccc(-c2ccnc3c(C(=O)O)cnn23)cc1C [Compound 11, 7–(3,4-Dimethylphenyl)pyrazolo[1,5-a]pyrimidine-3-carboxylic acid]
remaining activity at 500 µM: 100%

O=c1c(O)c(Nc2ccc(CN3CCCCC3)cc2)c1=O [Compound G317-0765]
remaining activity at 1700 µM (read-out: DdlB RA): 92%

N/C(=N\O)c1cnn2c(-c3cccc(C(F)(F)F)c3)ccnc12 [Compound 23, (Z)-N'-Hydroxy-7–(3-(trifluoromethyl)phenyl)pyrazolo[1,5-a]pyrimidine-3-carboximidamide]
remaining activity at 500 µM: 94%

Cc1ccccc1NS(=O)(=O)c1c[nH]c2ncccc12 [Compound P633-0038]
remaining activity at 1700 µM [1]: 89%

CCC1(C(=O)NC2CCCCCC2)CCCCC(=O)N1 (centres unmarked) [Compound S515-0307]
remaining activity at 2100 µM [1]: 99%

O=C(O)C1CCCCN1S(=O)(=O)c1ccc(F)cc1 (centres unmarked) [Compound C155-0476]
remaining activity at 2100 µM [1]: 90%

O=C(O)c1cnn2c(-c3cccc([N+](=O)[O-])c3)ccnc12 [Compound 13, 7–(3-Nitrophenyl)pyrazolo[1,5-a]pyrimidine-3-carboxylic acid]
remaining activity at 500 µM: 89%

N#Cc1c(N)cccc1F [FLD137]
remaining activity at 2500 µM [2]: 98%

O=C(O)c1ccccc1Br [FLD060]
remaining activity at 2500 µM [2]: 100%

O=C(Nc1ccc2[nH]c(=O)oc2c1)c1ccc(F)cc1 [Compound G434-0256]
remaining activity at 1800 µM (read-out: DdlB RA): 74%

Nc1ccc(F)c(Cl)c1 [FLD050]
remaining activity at 2500 µM (read-out: DdlB RA): 98%

O=c1c(O)c(N2CCCCCC2)c1=O [Compound G317-0465]
remaining activity at 2600 µM (tested concentration 2.6 mM, read-out: DdlB RA): 92%

Cc1onc(-c2ccccc2Cl)c1C(=O)NCC#N [Compound Y030-1543]
remaining activity at 2200 µM [1]: 98%

Cn1c(C(=O)O)cc2ccccc21 [FLD198]
remaining activity at 2500 µM [2]: 79%

CC1CCCN(S(=O)(=O)Cc2ccccc2)C1 (centres unmarked) [Compound Y030-1494]
remaining activity at 2400 µM (read-out: DdlB RA): 79%

O=C(O)c1ccncc1F [FLD151]
remaining activity at 2500 µM [2]: 98%

Oc1nsnc1N1CCOCC1 [Compound 8009-8691]
remaining activity at 2700 µM (tested concentration 2.7 mM, read-out: DdlB RA): 88%

CC(=O)Nc1cccc(C)c1 [FLD063]
remaining activity at 2500 µM [2]: 100%

Cc1ccc(S(N)(=O)=O)cc1NC(=O)c1cccnc1 [Compound Y202-7310]
remaining activity at 1700 µM (read-out: DdlB RA): 100%

COc1ccc2ccc(O)cc2c1 [FLD013]
remaining activity at 2500 µM [2]: 73%

O=S(=O)(Cc1ccccc1F)N1CCOCC1 [Compound Y300-2685]
remaining activity at 2100 µM (read-out: DdlB RA): 95%

Clc1cc(Cl)ncn1 [FLD117]
remaining activity at 2500 µM [2]: 97%

COc1cc(N)c(C#N)cc1OC [FLD048]
remaining activity at 2500 µM [2]: 100%

CCOC(=O)Nc1ccccc1 [FLD098]
remaining activity at 2500 µM [2]: 96%

N#Cc1ccc(NC(=O)[C@H]2CC=CC[C@H]2C(=O)O)cc1 [Compound 8009-1194]
remaining activity at 2000 µM [1]: 91%

N#CCS(=O)(=O)C1CCCCC1 [FF20-0194]
remaining activity at 3200 µM (residual activity of DdlB, fragment library screening, read-out: DdlB RA): 101%

Cc1ccc(CS(=O)(=O)N2CCc3ccccc32)cc1 [Compound Y300-3078]
remaining activity at 2100 µM [1]: 112%

N#Cc1ccccn1 [FLD180]
remaining activity at 2500 µM [2]: 98%

CCCc1cc(C(=O)O)n(C)n1 [Compound 8010-6224]
remaining activity at 3300 µM (residual activity of DdlB, fragment library screening, tested concentration 3.3 mM, read-out: DdlB RA): 90%

OCc1ccc(Br)cc1 [FLD122]
remaining activity at 2500 µM [2]: 96%

Cc1nc(C(=O)O)cs1 [FLD100]
remaining activity at 2500 µM [2]: 93%

CC(=O)Nc1ccccc1C(=O)O [FLD129]
remaining activity at 2500 µM [2]: 98%

CCOC(=O)c1cccnc1C [FLD178]
remaining activity at 2500 µM [2]: 99%

Nc1ccc(Cl)nn1 [FLD052]
remaining activity at 2500 µM [2]: 96%

O=C(O)Cn1nnc(O)n1 [Compound 8013-5932]
remaining activity at 3500 µM (read-out: DdlB RA): 86%

CC1CCCN(C(=O)c2nc[nH]c2C(=O)NC(C)C)C1 (centres unmarked) [Compound D340-0776]
remaining activity at 2000 µM [1]: 96%

Cc1cc(C)nc(NC#N)n1 [FLD119]
remaining activity at 2500 µM [2]: 100%

CCOc1c(NC2CCCCC2)c(=O)c1=O [Compound K906-2368]
remaining activity at 2200 µM (read-out: DdlB RA): 76%

NCCc1cccc(F)c1 [FLD175]
remaining activity at 2500 µM [2]: 94%

N#CCc1ccsc1 [FLD183]
remaining activity at 2500 µM [2]: 100%

Cc1cc(Cl)ccc1O [FLD037]
remaining activity at 2500 µM [2]: 85%

O=C(O)c1cnc(-c2cccnc2)[nH]c1=O [Compound 8020-5063]
remaining activity at 2300 µM [1]: 94%

Cc1ccccc1CS(=O)(=O)N1CCCC(C)C1 (centres unmarked) [Compound Y300-2308]
remaining activity at 2200 µM [1]: 95%

Cc1cccc(Nc2ncccc2S(N)(=O)=O)c1 [Compound M784-3114]
remaining activity at 1900 µM (read-out: DdlB RA): 94%

CCNCc1ccncc1 [FLD193]
remaining activity at 2500 µM [2]: 91%

Nc1ccc(S(=O)(=O)O)cc1 [Compound 8001-1265]
remaining activity at 2900 µM (tested concentration 2.9 mM, read-out: DdlB RA): 95%

Cc1cccnc1C(=O)N1CCC2(CC1)CCC2(C)O (centres unmarked) [Compound S971-1225]
remaining activity at 2200 µM [1]: 97%

NCc1nc2ccccc2[nH]1 [FLD157]
remaining activity at 2500 µM [2]: 105%

O=C(O)c1cc(CO)on1 [Compound 8018-8667]
remaining activity at 3500 µM (read-out: DdlB RA): 99%

O=c1[nH]c2ccc(S(=O)(=O)N3CCCCC3)cc2o1 [Compound K893-0198]
remaining activity at 1800 µM (read-out: DdlB RA): 100%

Nc1ccc2nsnc2c1 [FLD147]
remaining activity at 2500 µM [2]: 100%

Oc1cc(-c2ccncc2)n[nH]1 [Compound 8011-7794]
remaining activity at 3100 µM (tested concentration 3.1 mM, read-out: DdlB RA): 77%
